Results on one substance are retold here after patent US20260091136A1, “USING ENHO GENE THERAPY TO TREAT CARDIOMETABOLIC DISEASE” (University of Pittsburgh-of the Commonwealth System of …, priority 2023, published 2026).

Entries after “also recorded” stand apart in the source; their conditions may differ.

One assay has as its system GPR19. The assay can be described thus: Wildtype and GPR19-knockout mice on HFpEF diet with or without Adropin. It is filed as in vivo. The text has this:
Wildtype and GPR19-knockout (GPR19-KO) mice were given normal chow (control mice), HFpEF diet without Adropin, or HFpEF with Adropin.

Assay [1] deals with HFpEF mice. The assay can be described thus: Heart, lung and liver mass after four weeks of Adropin in HFpEF mice (Example 1). It is filed as in vivo. On the procedure:
(§1) Administration of Recombinant Adropin. Mice received low-fat chow or HFpEF diet for 10 weeks. For the following 4 weeks, the mice were maintained on respective diets and received daily injections of recombinant Adropin. Body weight was measured every day during the four weeks of treatment.

Assay [2] concerns hearts from control HFpEF and Adropin treated HFpEF mice. Briefly: Bulk RNA sequencing of hearts, HFpEF vs HFpEF+Adropin. Type of assay: in vivo, C57BL/6J mice. As to conditions: heart bulk RNA-seq. The text has this: (§2) Animal Care and Use. Male C57BL/6J 8-week-old mice were obtained from the Jackson Laboratory and maintained on chow for 4 weeks to acclimate to their new environment. Animals were housed in the University of Pittsburgh animal facility under standard conditions with ad libitum access to water and food and maintained on a constant 12-hour light/dark cycle. At 12 weeks of age, the mice were exposed to normal chow (Chow; 60% carbohydrate, 26% protein, 14% fat), or a combination of high-fat diet (HFD; 20% carbohydrate, 20% protein, 60% fat) plus No-nitro-L-arginine methyl ester (L-NAME: 0.5 g/L) supplemented in their drinking water after adjusting the pH to 7.4 with 1N NaOH to induce HFpEF [10]. For cohort 1, the mice were subject to the HFpEF diet for 15 weeks. For cohort 2, after 8 weeks of diet, mice were randomly assigned to a control or treatment group receiving daily intraperitoneal injections of either vehicle or recombinant adropin at 450 nmol/kg animal weight prepared in PBS with 0.1% BSA for the remaining 5 weeks of the study. L-NAME supplemented drinking water was changed weekly and adropin was made fresh and sterile filtered before each use.
Transcriptomics. Total RNA was isolated from myocardial LV and hepatic tissue using the RNeasy Plus Mini Kit. Approximately 2 μg RNA was used for bulk RNA sequencing performed by Azenta/GENEWIZ based on company recommendations to identify differential gene expression patterns between the experimental groups.

For another assay, the system named is LCAD. Briefly: O-GlcNAc co-immunoprecipitation from heart: LCAD. Conditions: Adropin-treated HFpEF mice, relative to levels in chow mice / HFpEF. It is filed as in vivo, C57BL/6J mice.
From the text: as §2
Co-Immunoprecipitation. […] Images were obtained using LiCor Odyssey CLx System and protein densitometry was measured using the LiCor Image Studio Lite Ver. […]

In assay [3] the test system is HFpEF mice. The assay can be described thus: Glucose tolerance testing (IPGTT) in HFpEF mice (Example 1). Type of assay: in vivo. As to conditions: for glucose tolerance: HFpEF mice, four weeks of Adropin treatment. On the procedure:
as §1
Glucose tolerance testing. Glucose tolerance was tested (IPGTT), following a 2 g/kg bolus of glucose. Blood was collected at 15 mins, 30 mins, 45 mins, 60 mins, 90 mins, and 120 mins, and measured using a standard glucometer (Bayer Next EZ). Time-courses for blood glucose uptake will be generated and analyzed for significance using standard statistical tests.

The mark [4] stands for this setting: wildtype HFpEF mice that received Adropin vs wildtype control mice.
[5] abbreviates: IPGTT AUC analysis, p-value <0.05.

For the substance “Adropin: recombinant Adropin peptide hormone encoded by the ENHO gene; full-length (SEQ ID NO: 1) or cleaved product of amino acids 34-76 (SEQ ID NO: 2) (CHSRSADVDSLSESSPNSSPGPCPEKAPPPQKPSHEGSYLLQP)”, the IVRT entry with GPR19 (GPR19-KO HFpEF mice vs GPR19-KO control mice, in contrast to wildtype, p-value <0.01) is “significantly greater”; in the assay on GPR19 (setting [4]), “not significantly different”; in the assay on GPR19 (wildtype HFpEF which received Adropin vs wildtype HFpEF mice without treatment, p-value <0.01), “significantly lower”. In addition, the “diastolic function (MV E/e′)” value was “remained significantly lower” in the assay on GPR19 (GPR19-KO mice vs control mice, in contrast to wildtype, p-value <0.001); “increased on average” with GPR19 (wildtype HFpEF mice that received Adropin vs wildtype HFpEF mice without Adropin); “not significantly different” in the assay on GPR19 (setting [4]). The “fasted body weight of HFpEF mice relative to HFpEF mice that received Adropin” value in the assay with GPR19 (GPR19-KO mice, p-value <0.0001) is recorded as “significantly greater”; in the assay with GPR19 (wildtype mice, p-value <0.0001) it was “significantly greater”. In addition, in the assay on GPR19 (fasted body weight, MV E/e′ and IVRT), the “Adropin-mediated improvement of diastolic function in GPR19-KO HFpEF mice” value is on record as “not observed; also recorded: GPR19-dependent”. Besides, in the assay on GPR19 (p-value <0.0001), the “body weight of GPR19-KO HFpEF mice that received Adropin relative to wildtype HFpEF mice that received Adropin” value is listed as “significantly greater”. Also, the “lung or liver mass” value in the assay on HFpEF mice [1] (after 4 weeks) is recorded as “no differences were observed”. Also, in the assay on HFpEF mice [1] (following 4 weeks of Adropin, vs HFpEF mice without treatment), the “average LV mass (FIG. 3A; cardiac hypertrophy)” value is on record as “lower; also recorded: reduces”. Besides, the “expression of extracellular matrix remodeling/fibrosis (e.g. Comp, Col12a1) and natriuretic peptide (e.g. Nppa) genes” value in assay [2] (Adropin-treated vs HFpEF mice) is given as “decreased expression; also recorded: downregulated”. Moreover, the “decrease in extracellular matrix remodeling transcripts (Col1a1, Col3a1, Col5a1, Mmp2)” value in assay [2] (adropin-treated vs vehicle-treated HFpEF mice) is greater than 2 fold. Also, in assay [2] (between HFpEF and Adropin groups), the metabolic genes result is listed as “no widespread changes”. The “LCAD O-GlcNAcylation” value with LCAD is “restored; also recorded: reduced”. Also, the “average blood glucose, IPGTT” value in the assay on HFpEF mice [3] (HFpEF mice that received Adropin, by the 120 minute timepoint) is “gradually decreased to match control chow mice”. The glucose tolerance entry in the assay on HFpEF mice [3] is reported as “increase”; in the assay with HFpEF mice [3] (listed as Recombinant Adropin) it was “significant increase”. The “blood glucose AUC of HFpEF mice that received Adropin relative to control chow mice” value in the assay on HFpEF mice [3] (setting [5]) is listed as “significantly greater”. Also, in the assay with HFpEF mice [3] (setting [5]), the “blood glucose AUC of HFpEF mice without Adropin relative to HFpEF mice that received Adropin” value is “significantly greater”.
